From patent US11149036B2, “3-(1H-pyrazol-4-yl)pyridine allosteric modulators of the M4 muscarinic acetylcholine receptor” (Merck Sharp & Dohme Corp., priority 2017, dated 2021)

Molecular target: T1, human M4 muscarinic acetylcholine receptor (Homo sapiens, UniProt P08173)
T1 construct: expressed in transfected cells; host or cells: CHO-K1
T1 sequence (P08173 1-479): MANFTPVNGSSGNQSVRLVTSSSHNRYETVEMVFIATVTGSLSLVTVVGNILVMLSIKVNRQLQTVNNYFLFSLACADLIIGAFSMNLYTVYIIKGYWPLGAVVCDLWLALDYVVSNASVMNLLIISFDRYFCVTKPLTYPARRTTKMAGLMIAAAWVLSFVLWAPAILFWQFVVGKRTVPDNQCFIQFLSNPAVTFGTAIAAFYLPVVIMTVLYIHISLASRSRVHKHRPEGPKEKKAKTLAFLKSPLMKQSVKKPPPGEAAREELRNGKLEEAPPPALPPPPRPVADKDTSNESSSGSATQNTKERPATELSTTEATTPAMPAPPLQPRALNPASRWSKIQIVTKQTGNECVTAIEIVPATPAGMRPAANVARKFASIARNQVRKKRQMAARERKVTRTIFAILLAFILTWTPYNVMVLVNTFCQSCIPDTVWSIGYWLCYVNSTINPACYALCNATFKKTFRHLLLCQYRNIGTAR
Assay: human FLIPR-based M4 PAM assay (CHO-K1 cells with human M4 receptor and Gaqi5, calcium dye fluorescence)
Format: cell-based
Conditions: inflection point (IP) of dose response curve, acetylcholine added at 20% of maximum response, read-out: M4 FLIPPR Hu IP
Outline: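 CHO-K1 cells stably expressing human M4 with chimeric Gaqi5, calcium-dye loaded ~1 h at 37° C; compound added at increasing concentrations 4 min before acetylcholine at an EC20 concentration (sometimes a further EC70 addition).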

SMILES	EC50
Cc1cc(-c2cnn(CC3(F)CCCC3)c2)c(-c2cnc3c(c2)ncn3C)nc1Cl [Example 117, 6-(6-chloro-3-(1-((1-fluorocyclopentyl)methyl)-1H-pyrazol-4-yl)-5-methylpyridin-2-yl)-3-methyl-3H-imidazo[4,5-b]pyridine]	45 nM
CC1(Cn2cc(-c3ccc(C#N)nc3-c3ccn4nc(CF)nc4c3)cn2)CCCC1 [Example 78, 6-(2-(fluoromethyl)-[1,2,4]triazolo[1,5-a]pyridin-7-yl)-5-(1-((1-methylcyclopentyl)methyl)-1H-pyrazol-4-yl)picolinonitrile]	29 nM
Cc1cnc(-c2ccn3ccnc3c2)c(-c2cnn(CC3(C)CCCC3)c2)c1 [Example 112, 7-(5-methyl-3-(1-((1-methylcyclopentyl)methyl)-1H-pyrazol-4-yl)pyridin-2-yl)imidazo[1,2-a] pyridine]	46 nM
COc1cc2ccc(-c3nc(C)ccc3-c3cnn(CC4CCCC4)c3F)cc2nn1 [Example 12, 7-(3-(1-(cyclopentylmethyl)-5-fluoro-1H-pyrazol-4-yl)-6-methylpyridin-2-yl)-3-methoxycinnoline]	7 nM
N#Cc1ccc(-c2cnn(CC3C[C@H](F)[C@@H](F)C3)c2)c(-c2ccn3ccnc3c2)n1 [Example 71, 5-(1-(((3S,4S)-3,4-difluorocyclopentyl)methyl)-1H-pyrazol-4-yl)-6-(imidazo[1,2-a]pyridin-7-yl)picolinonitrile]	26 nM
Cc1nnc2cc(-c3nc(C#N)ccc3-c3cnn(CC4(F)CCCC4)c3)ccn12 [Example 44, 5-(1-((1-fluorocyclopentyl)methyl)-1H-pyrazol-4-yl)-6-(3-methyl-[1,2,4]triazolo [4,3-a]pyridin-7-yl)picolinonitrile]	18 nM
CC1(Cn2cc(-c3ccc(C#N)nc3-c3ccc4cc(CF)nnc4c3)cn2)CCCC1 [Example 164, 6-(3-(fluoromethyl)cinnolin-7-yl)-5-(1-((1-methylcyclopentyl)methyl)-1H-pyrazol-4-yl)picolinonitrile]	85 nM
O=C1c2cc(-c3ncccc3-c3cnn(CC4(F)CCCC4)c3)ccc2CN1C1CCC1 [Example 139, 2-cyclobutyl-6-(3-(1-((1-fluorocyclopentyl)methyl)-1H-pyrazol-4-yl)pyridin-2-yl)isoindolin-1-one]	17 nM
COc1cc2ccc(-c3nc(C)ccc3-c3cnn(CC4(C)CCC(F)(F)C4)c3)cc2nn1 (single isomer, unassigned) [Example 150, (R or S)-7-(3-(1-((3,3-difluoro-1-methylcyclopentyl)methyl)-1H-pyrazol-4-yl)-6-methylpyridin-2-yl)-3-methoxycinnoline]	22 nM
Cc1ccc(-c2cnn(CC3(C)CCCC3)c2)c(-c2ccc3ccn(C)c(=O)c3c2)n1 [Example 35, 2-methyl-7-(6-methyl-3-(1-((1-methylcyclopentyl)methyl)-1H-pyrazol-4-yl)pyridin-2-yl)isoquinolin-1(2H)-one]	26 nM
COc1cc2ccc(-c3nc(C)ccc3-c3cnn(CC4(C)CCC(=O)C4)c3)cc2nn1 (single isomer, unassigned; isomer a) [Example 149, 3-((4-(2-(3-methoxycinnolin-7-yl)-6-methylpyridin-3-yl)-1H-pyrazol-1-yl)methyl)-3-methylcyclopentan-1-one isomer A]	200 nM
COCc1nc2cc(-c3nc(C#N)ccc3-c3cnn(CC4(F)CCCC4)c3)ccn2n1 [Example 155, 5-(1-((1-fluorocyclopentyl)methyl)-1H-pyrazol-4-yl)-6-(2-(methoxymethyl)-[1,2,4]triazolo[1,5-a]pyridin-7-yl)picolinonitrile]	55 nM
CC1(C)NC(=O)c2cc(-c3nc(C#N)ccc3-c3cnn(CC4(F)CCCC4)c3)ccc21 [Example 46, 6-(1,1-dimethyl-3-oxoisoindolin-5-yl)-5-(1-((1-fluorocyclopentyl)methyl)-1H-pyrazol-4-yl)picolinonitrile49]	102 nM
N#Cc1ccc(-c2cnn(CC3(F)CCCC3)c2)c(-c2ccc3c(c2)C(=O)N(C2CC2)C3)n1 [Example 40, 6-(2-cyclopropyl-3-oxoisoindolin-5-yl)-5-(1-((1-fluorocyclopentyl)methyl)-1H-pyrazol-4-yl) picolinonitrile]	13 nM
Cc1ccc(-c2nc(C)ccc2-c2cnn(CC3CCCC3)c2)cc1 [Example 6, 3-(1-(cyclopentylmethyl)-1H-pyrazol-4-yl)-6-methyl-2-(p-tolyl)pyridine]	72 nM
Cc1ccc(-c2cnn(CC34CCC(CC3)C4)c2)c(-c2ccc3cccnc3c2)n1 [Example 26, 7-(3-(1-(bicyclo[2.2.1]heptan-1-ylmethyl)-1H-pyrazol-4-yl)-6-methylpyridin-2-yl)quinoline]	10 nM
Cc1ccc(-c2cnn(CC3CCCC3)c2)c(-c2ccc3cc(F)cnc3c2)n1 [Example 13, 7-(3-(1-(cyclopentylmethyl)-1H-pyrazol-4-yl)-6-methylpyridin-2-yl)-3-fluoroquinoline]	23 nM
COc1cc2ccc(-c3nc(C#N)ccc3-c3cnn(C[C@H]4CC[C@H](F)C4)c3)cc2nn1 [Example 67, 5-(1-(((1S,3S)-3-fluorocyclopentyl)methyl)-1H-pyrazol-4-yl)-6-(3-methoxycinnolin-7-yl)picolinonitrile]	64 nM
Cc1cn2ccc(-c3nc(C#N)c(Cl)cc3-c3cnn(CC4(C)CCCC4)c3)cc2n1 [Example 162, 3-chloro-5-(1-((1-methylcyclopentyl)methyl)-1H-pyrazol-4-yl)-6-(2-methylimidazo[1,2-a]pyridin-7-yl)picolinonitrile]	40 nM
Cc1cn2ccc(-c3ncc(F)cc3-c3cnn(CC4(F)CCCC4)c3)cc2n1 [Example 96, 7-(5-fluoro-3-(1-((1-fluorocyclopentyl)methyl)-1H-pyrazol-4-yl)pyridin-2-yl)-2-methylimidazo[1,2-a] pyridine]	35 nM
O=C1c2cc(-c3ncccc3-c3cnn(CC4(F)CCCC4)c3)ccc2CN1CC1CCC1 [Example 140, 2-(cyclobutylmethyl)-6-(3-(1-((1-fluorocyclopentyl)methyl)-1H-pyrazol-4-yl)pyridin-2-yl)isoindolin-1-one]	68 nM
N#Cc1ccc(-c2cnn(CC3(F)CCCC3)c2)c(-c2ccn3cc(CF)nc3c2)n1 [Example 135, 5-(1-((1-fluorocyclopentyl)methyl)-1H-pyrazol-4-yl)-6-(2-(fluoromethyl)imidazo[1,2-a]pyridin-7-yl)picolinonitrile]	24 nM
CC1(Cn2ncc(-c3ccc(C#N)nc3-c3ccn4ccnc4c3)c2C#N)CCCC1 [Example 144, 5-(5-cyano-1-((1-methylcyclopentyl)methyl)-1H-pyrazol-4-yl)-6-(imidazo[1,2-a]pyridin-7-yl)picolinonitrile]	54 nM
COc1cc2ccc(-c3nc(C)ccc3-c3cnn(CC45CCC(CC4)C5)c3)cc2nn1 [Example 25, 7-(3-(1-(bicyclo[2.2.1]heptan-1-ylmethyl)-1H-pyrazol-4-yl)-6-methylpyridin-2-yl)-3-methoxycinnoline]	10 nM
N#Cc1ccc(-c2cnn(CC3(F)CCCC3)c2)c(-c2ccn3cc(C4CC4)nc3c2)n1 [Example 54, 6-(2-cyclopropylimidazo[1,2-a]pyridin-7-yl)-5-(1-((1-fluorocyclopentyl)methyl)-1H-pyrazol-4-yl)picolinonitrile]	36 nM
